{"source": "patent US20060293264A1", "about": "“STAT3 decoy oligonucleotides and uses therefor” (priority 2004, published 2006)", "key": {"p53-responsive element": {"tested_on": "p53-responsive element", "experiment": "p53-Luciferase reporter gene assay in UM-22B SCCHN cells", "assay_type": "cell-based", "details": "UM-22B p53-Luc, 2 μg transfected, 24 hrs", "experimental": "FIG. 8 depicts the inhibition of reporter gene expression from a p53-responsive element in SCCHN cells. An SCCHN cell line, UM-22B, was used to generate a stable cell line expressing a p53-Luciferase (p53-Luc) reporter gene (The p53-Luc plasmid carrying 14 repeats of p53 transcription recognition sequence: 5'-[…] ID NO: 30)), was obtained from Stratagene, Catalog number: 219085-51). The cells were transfected with 2 μg of the STAT3 decoy or the control mutant decoy. At 24 hrs after transfection, luciferase (Luc) activity was measured and normalized to the total amount of protein according to standard methods."}, "SCCHN cells": {"tested_on": "SCCHN cells", "experiment": "Incorporation of decoy into SCCHN cells, fluorescence labeled flow cytometry", "assay_type": "cell-based", "details": "SCCHN cells in vitro, previously assessed"}, "STAT3": {"molecular_target": "T1, STAT3 (Homo sapiens, UniProt P40763)", "T1 construct": "Whole cell extracts were prepared and EMSAs performed on 4% native polyacrylamide gels; endogenous in cells; host or cells: whole cell extracts", "T1 sequence (P40763 2-770 limits assumed)": "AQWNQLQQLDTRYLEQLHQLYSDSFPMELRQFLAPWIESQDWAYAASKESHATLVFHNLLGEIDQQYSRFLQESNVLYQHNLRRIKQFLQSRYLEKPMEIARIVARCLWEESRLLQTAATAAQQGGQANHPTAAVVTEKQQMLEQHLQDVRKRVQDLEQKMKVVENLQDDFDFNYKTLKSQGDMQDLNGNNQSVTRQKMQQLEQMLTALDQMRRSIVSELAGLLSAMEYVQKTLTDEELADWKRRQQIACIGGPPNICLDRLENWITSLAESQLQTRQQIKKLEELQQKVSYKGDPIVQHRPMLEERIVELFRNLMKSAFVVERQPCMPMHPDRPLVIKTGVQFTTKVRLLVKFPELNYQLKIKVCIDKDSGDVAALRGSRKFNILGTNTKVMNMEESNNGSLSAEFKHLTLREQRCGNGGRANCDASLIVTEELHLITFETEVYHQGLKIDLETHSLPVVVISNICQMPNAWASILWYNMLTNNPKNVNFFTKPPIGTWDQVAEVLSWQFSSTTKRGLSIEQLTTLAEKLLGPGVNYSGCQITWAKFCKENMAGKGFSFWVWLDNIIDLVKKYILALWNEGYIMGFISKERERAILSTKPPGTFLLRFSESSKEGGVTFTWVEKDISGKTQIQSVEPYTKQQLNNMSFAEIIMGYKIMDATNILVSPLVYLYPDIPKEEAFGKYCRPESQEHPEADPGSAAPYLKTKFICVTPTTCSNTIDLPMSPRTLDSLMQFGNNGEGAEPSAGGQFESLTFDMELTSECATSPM", "experiment": "STAT3 activation by EMSA in harvested xenografts", "assay_type": "in vivo", "details": "xenografts harvested 4 hrs after last treatment; p=0.02", "experimental": "Electrophoretic Mobility Shift Assay (EMSA). Whole cell extracts were prepared and EMSAs performed on 4% native polyacrylamide gels as described (Xi, S., et al. J Biol Chem, 278: 31574-31583, 2003 and Wong, P., etal. Mol Cell Biol, 14. 914-922, 1994). STAT3 activation was evaluated by using binding reactions with 20 μg of extracted protein, and radiolabeled high-affinity serum inducible element (hSIE) duplex oligonucleotide (Wagner et al., EMBO J. 9(13):4477-4484 (1990)). Quantification of the STAT3 signal was performed by scanning the SIF-A band using a Molecular Dynamics Personal Densitometer SI and IMAGEQUANT software. […] For supershift experiments, extracts were preincubated with STAT3 polyclonal antibody (C-20, Santa Cruz Biotechnology). Gel shift bands were quantified by densitometry and the Molecular Analyst software (AlphaDigidoc 1000, Alpha-Innotech) with normalization of each band to the positive control lysate run on that gel as described previously for STAT3 activation determinations (Grandis, J. R. et al. Proc Natl Acad Sci USA, 97: 4227-4232., 2000).\nIn vivo tumor xenograft studies. Female athymic nude mice nu/nu (4-6 weeks old; 20±2 g; Harlan-Sprague-Dawley) were implanted with 1×10^6 1483 cells into the right and left flank with a 26-gauge needle/1 ml tuberculin syringe, resulting in two tumors per mouse. […]"}, "STAT5": {"tested_on": "STAT5", "experiment": "STAT5 activation by EMSA in harvested xenografts", "assay_type": "in vivo", "details": "xenografts after 25 treatments; specificity"}}, "data": [{"substance": "STAT3 decoy (sense CATTTCCCGTAAATC; antisense GATTTACGGGAAATG; phosphorothioate modified, further chemistry not given here; listed as Homo sapiens)", "values": [{"measurement": "p53 reporter activity", "setting": "p53-responsive element", "value": "specifically interfere"}, {"measurement": "cells in which decoy was detected", "setting": "SCCHN cells", "value": "> 90", "unit": "%"}, {"measurement": "STAT3 activation levels compared with mutant control decoy", "setting": "STAT3", "value": "decreased"}, {"measurement": "STAT5 activation", "setting": "STAT5", "value": "no abrogation"}]}]}
